Experiment: Qualitative solubility/crystallisation tests on 15 mg scale
Assay type: physicochemical

CO/N=C1/C[C@@H](CO)N(C(=O)c2ccc(-c3ccccc3C)cc2)C1 [(3Z,5S), (3Z,5S)-5-(hydroxymethyl)-1-[(2′-methyl-1,1′-biphenyl-4-yl)carbonyl]pyrrolidin-3-one-O-methyloxime]
Dissolves in (solvent DIPE, hot): 40 vol hot | Dissolves in (solvent IPA, hot): 4 vol hot | Dissolves in (solvent MIBK, hot): 4 vol hot | Dissolves in (solvent THF, cold): 4 vol cold | Dissolves in (solvent tBuOH, hot): 6 vol hot | Dissolves in (solvent toluene, cold): 2 vol cold

— patent US9962367B2, “Oral formulations of pyrrolidine derivatives” (ObsEva S.A., priority 2013, dated 2018)
